The nature of data set [1]: Aqueous solubility (background values). In kind it is physicochemical. The conditions noted are these: heating in near boiling water for 2 hours.
For data set [2] the following is noted: cited from earlier work.
Data set [3] is described as follows: Long-term solution stability (visual crystallization/precipitation time). It is filed as physicochemical. The conditions noted are these: for time until solution crashes out: solution of 1%. The protocol: (§1) Solutions were prepared by mixing one or more steviol glycoside component in purified water at ambient temperature. Solubility enhancers, preservatives, or ethanol were included only where expressly indicated and, when used, were added to the initial mixture prior to heating and dissolution. The mixtures were premixed and then subsequently heated via heat block or oven. Solutions took approximately one or two minutes to reach the target temperature, and then were maintained at the target temperature at least until complete dissolution of solids. Dissolution of solids was monitored visually during heating. After the heating period, fully dissolved solutions were permitted to cool to room temperature and were monitored for initial precipitation.
Solutions were further monitored for stability over periods of hours, days, weeks, and longer. Multiple techniques were utilized to evaluate stability. […] Solutions were also evaluated by recovering dissolved solids and then calculating percent recovery. If necessary, the solutions were filtered to remove undissolved material to assure that percent recovery reflected only dissolved steviol glycosides.
The rebaudioside M and A blend was further observed hourly for the first several hours, then monitored daily to evaluate long-term stability. Steviol glycoside binary blends in aqueous solvent (1%) were prepared from as an […].
Amounts of rebaudioside M and rebaudioside A in varying ratios were combined with purified water at room temperature and then heated to 85° C. with a heating block to effect dissolution. For example, for batches formulated to provide a concentration of about 10% DS, approximately 25 mg of each of rebaudioside M and rebaudioside A were dissolved in 500 μL of purified water. Samples were monitored until crystallization occurred or for at least 40 days. Solutions that remained clear and free of visible precipitation are identified in the tables below.
Steviol glycoside solutions of rebaudioside M and rebaudioside A were tested to determine if non-aqueous solvent was beneficial or detrimental to solution stability. Ingredients were combined in purified water at room temperature then heated to 85° C. with a heating block to effect dissolution. The solution was allowed to cool to ambient temperature, and then visually monitored for precipitation.

Data set [4] is described as follows: Initial solubility in aqueous solution (visual dissolution on heating). It is filed as physicochemical. The method, then:
as §1
Various individual steviol glycosides were tested to evaluate initial solubility in aqueous solution as well as the long-term stability in solution. Ingredients were combined in purified water at room temperature then heated to 85° C. with a heating block to effect dissolution. […]

[5] abbreviates: conventional formulations, aqueous solution at 25° C., WO 2017/120480 A1.
Where [6] appears, read: 0.49% DS, after dissolution at 85° C.

Read-outs that look alike come from different tables or passages of the source.

For the molecule `C=C1C[C@@]23CC[C@H]4[C@@](C)(CCC[C@@]4(C)C(=O)O[C@@H]4O[C@H](CO)[C@@H](O)[C@H](O)[C@H]4O[C@@H]4O[C@H](CO)[C@@H](O)[C@H](O)[C@H]4O)[C@@H]2CC[C@]1(O[C@@H]1O[C@H](CO)[C@@H](O)[C@H](O[C@@H]2O[C@H](CO)[C@@H](O)[C@H](O)[C@H]2O)[C@H]1O[C@@H]1O[C@H](CO)[C@@H](O)[C@H](O)[C@H]1O)C3` [D, rebaudioside D], the concentration temporarily dissolved in data set [1] is listed as 0.8 wt %. Besides, the “dissolved content in aqueous solution” value in data set [2] (setting [5]) is reported as “about 0.05 wt %”. Besides, the “Crystallization Time” value is less than 2 h in data set [3] (0.48% DS (Reb D), 0.5% DS (Total)) and less than 2 h in data set [3] (0.48% DS, after dissolution at 85° C.). Further, the dissolution result in data set [4] (1% DS in water, heated to 85° C. for 20 minutes, cooled to room temperature (FIG. 1)) is “failed to dissolve”; in data set [4] (1% DS in water, heated to 85° C. for 20 minutes, cooled to room temperature (FIG. 1), listed as Reb D), “cannot achieve dissolution”.
Consider `C=C1C[C@@]23CC[C@H]4[C@@](C)(CCC[C@@]4(C)C(=O)O[C@@H]4O[C@H](CO)[C@@H](O)[C@H](O)[C@H]4O[C@@H]4O[C@H](CO)[C@@H](O)[C@H](O)[C@H]4O)[C@@H]2CC[C@]1(O[C@@H]1O[C@H](CO)[C@@H](O)[C@H](O)[C@H]1O[C@@H]1O[C@H](CO)[C@@H](O)[C@H](O)[C@H]1O)C3` [E, rebaudioside E], for which the “Crystallization Time” value in data set [3] (setting [6]) is 336 h.
As for `C=C1C[C@@]23CC[C@H]4[C@@](C)(CCC[C@@]4(C)C(=O)O[C@@H]4O[C@H](CO)[C@@H](O)[C@H](O)[C@H]4O[C@@H]4O[C@@H](C)[C@H](O)[C@@H](O)[C@H]4O)[C@@H]2CC[C@]1(O[C@@H]1O[C@H](CO)[C@@H](O)[C@H](O[C@@H]2O[C@H](CO)[C@@H](O)[C@H](O)[C@H]2O)[C@H]1O[C@@H]1O[C@H](CO)[C@@H](O)[C@H](O)[C@H]1O)C3` [J, rebaudioside J], in data set [3] (0.53% DS, after dissolution at 85° C.), the “Crystallization Time” value was less than 2 h. Moreover, the “Soluble?” value in data set [4] is “Y”. The dissolution entry in data set [4] (1% solution, purified water, heated to 85° C.) was “failed to dissolve”.
On to `C=C1C[C@@]23CC[C@H]4[C@@](C)(CCC[C@@]4(C)C(=O)O[C@@H]4O[C@H](CO)[C@@H](O)[C@H](O[C@@H]5O[C@H](CO)[C@@H](O)[C@H](O)[C@H]5O)[C@H]4O[C@@H]4O[C@H](CO)[C@@H](O)[C@H](O)[C@H]4O)[C@@H]2CC[C@]1(O[C@@H]1O[C@H](CO)[C@@H](O)[C@H](O[C@@H]2O[C@H](CO)[C@@H](O)[C@H](O)[C@H]2O)[C@H]1O[C@@H]1O[C@H](CO)[C@@H](O)[C@H](O)[C@H]1O)C3` [M (RM01), rebaudioside M], for which, in data set [3] (0.33% DS, after dissolution at 85° C.), the “Crystallization Time” value was less than 72 h. Moreover, the “Soluble?” value in data set [4] is given as “Y”.
Consider `C=C1C[C@@]23CC[C@H]4[C@@](C)(CCC[C@@]4(C)C(=O)O[C@@H]4O[C@H](CO)[C@@H](O)[C@H](O[C@@H]5O[C@H](CO)[C@@H](O)[C@H](O)[C@H]5O)[C@H]4O[C@@H]4O[C@@H](C)[C@H](O)[C@@H](O)[C@H]4O)[C@@H]2CC[C@]1(O[C@@H]1O[C@H](CO)[C@@H](O)[C@H](O[C@@H]2O[C@H](CO)[C@@H](O)[C@H](O)[C@H]2O)[C@H]1O[C@@H]1O[C@H](CO)[C@@H](O)[C@H](O)[C@H]1O)C3` [N, rebaudioside N], for which, in data set [3] (setting [6]), the “Crystallization Time” value was less than 1 h. Further, the “Soluble?” value in data set [4] is listed as “Y”.
For `C=C1C[C@@]23CC[C@H]4[C@@](C)(CCC[C@@]4(C)C(=O)O[C@@H]4O[C@H](CO)[C@@H](O)[C@H](O)[C@H]4O)[C@@H]2CC[C@]1(O[C@@H]1O[C@H](CO)[C@@H](O)[C@H](O[C@@H]2O[C@H](CO)[C@@H](O)[C@H](O)[C@H]2O)[C@H]1O[C@@H]1O[C@H](CO)[C@@H](O)[C@H](O)[C@H]1O)C3` [rebaudioside A], the “dissolved content in aqueous solution” value in data set [2] (purified, in water at 25° C., WO 2012/082587 A2) was “about 0.8 wt %”. Moreover, the “appearance (FIG. 3, bottom)” value in data set [3] (about 10% DS, only rebaudioside A) is reported as “intense precipitation”. The “time until solution crashes out” value in data set [3] is not above 72 h.
Take `C=C1C[C@@]23CC[C@H]4[C@@](C)(CCC[C@@]4(C)C(=O)O[C@@H]4O[C@H](CO)[C@@H](O)[C@H](O[C@@H]5O[C@H](CO)[C@@H](O)[C@H](O)[C@H]5O)[C@H]4O[C@@H]4O[C@H](CO)[C@@H](O)[C@H](O)[C@H]4O)[C@@H]2CC[C@]1(O[C@@H]1O[C@H](CO)[C@@H](O)[C@H](O[C@@H]2O[C@H](CO)[C@@H](O)[C@H](O)[C@H]2O)[C@H]1O[C@@H]1O[C@H](CO)[C@@H](O)[C@H](O)[C@H]1O)C3` [rebaudioside M]: the “dissolved content in aqueous solution” value in data set [2] (setting [5]) is listed as “about 0.1 wt %”. Moreover, in data set [2] (room temperature, freeze or spray dried, WO '480, stability over time not reported), the “dissolved concentration in aqueous solution” value is on record as 0.5 wt %. In addition, in data set [3], the “time until solution crashes out” value was “less than an hour”.
Regarding rebaudioside B, the “Crystallization Time” value in data set [3] (0.47% DS, heated to 85° C.) is on record as “Immediate”.
